In assay [1] the test system is PG9. Put plainly: ELISA of recombinant gp120 monomers with PG9. Format: binding, human. Conditions: gp120 monomer of the named strain.
For assay [2], the system named is Fab PG9. The assay is described as follows: Saturation transfer difference NMR of glycan binding to PG9. Set-up: species or system human. The conditions noted are these: for interaction with PG9 by STD NMR: 1.5 mM glycan, 15 μM Fab PG9. An excerpt: FIGS. 6A-6B illustrate two glycans and a strand comprise a V1V2 site-of-vulnerability. Glycan, electrostatic, and sequence-independent interactions allow PG9 to recognize a glycopeptide site on V1V2. A, Site characteristics in CAP45 strain of HIV-1. Glycans 160 and 156 (173 with ZM109) are highlighted in light grey, and strands B and C are highlighted in dark grey, with the rest of V1V2 in semi-transparent white. The interactive surface of V1V2 with PG9 is shown, colored according the local electrostatic potential as in FIG. 5B. The contribution of each structural element to that surface is provided as a percentage of the total. […] C, Langmuir binding curve used to obtain the KD a function of glycan concentration (A signals correspond to N-acetyl protons, which are shown in the boxed area of the upper panel). D, Stacked STD NMR spectra as a function of Man5GlcNAc2-Asn concentration.
FIG. 25 illustrates binding of GlcNAc2 to PG9 by NMR. STD (lower trace) and reference (upper trace) NMR spectra of 1.5 mM GlcNAc2 in the presence of 15 μM Fab PG9.
FIG. 26 illustrates binding of mannopentaose to PG9 by NMR. STD (lower trace) and reference (upper trace) NMR spectra of 1.5 mM mannopentaose (structure shown above) in the presence of 15 μM Fab PG9.
All NMR experiments were carried out at 298 K on Bruker avance 600 or avance 500 instruments equipped with a triple resonance cryo-probe incorporating gradients in z-axis. 1D STD spectra were acquired by selectively irradiating at −1 ppm and +40 ppm as on- and off-resonance frequencies, respectively, using a train of 50 ms Gaussian-shaped radio frequency pulses separated by 1 ms delays and an optimized power level of 57 db. During NMR experiments water suppression was achieved by binomial 3-9-19 pulse sequence and protein resonances were suppressed by applying 10 ms T1ρ filter. Samples were prepared in 20 mM sodium phosphate buffer containing 50 mM sodium chloride at pH 6.8. The NMR data were processed and analyzed by using TOPSPIN 2.1. […]

On to “16055: gp120 monomer of HIV-1 Clade C strain 16055, SEQ ID NO: 6 [compound 16055]”, for which the “PG9 recognition in the gp120 monomer context” value (“PG9 recognition” below) in assay [1] was “retained PG9 recognition”. Regarding `CC(=O)N[C@H]1[C@H](O[C@H]2[C@H](O)[C@@H](NC(C)=O)C(O)O[C@@H]2CO)O[C@H](CO)[C@@H](O)[C@@H]1O` (some centres unmarked) [(N-acetylglucosamine)2], the “interaction with PG9 by STD NMR” value in assay [2] was “not observed”. Take `CC(=O)N[C@@H]1[C@@H](O)[C@H](O[C@@H]2O[C@H](CO)[C@@H](O[C@@H]3O[C@H](CO[C@H]4O[C@H](CO[C@H]5O[C@H](CO)[C@@H](O)[C@H](O)[C@@H]5O)[C@@H](O)[C@H](O[C@H]5O[C@H](CO)[C@@H](O)[C@H](O)[C@@H]5O)[C@@H]4O)[C@@H](O)[C@H](O[C@H]4O[C@H](CO)[C@@H](O)[C@H](O)[C@@H]4O)[C@@H]3O)[C@H](O)[C@H]2NC(C)=O)[C@@H](CO)O[C@H]1NC(=O)C[C@H](N)C(=O)O` [Asn-(N-actylglucosamine)2(mannose)5]: the Kd in assay [2] (titration series, Langmuir binding curve, read-out: affinity for PG9) came to 1600 ± 900 µM.

For `CC(=O)N[C@H]1[C@H](O[C@H]2[C@H](O)[C@@H](NC(C)=O)C(O)O[C@@H]2CO)O[C@H](CO)[C@@H](O[C@@H]2O[C@H](CO[C@H]3O[C@H](CO[C@H]4O[C@H](CO)[C@@H](O)[C@H](O)[C@@H]4O)[C@@H](O)[C@H](O[C@H]4O[C@H](CO)[C@@H](O)[C@H](O)[C@@H]4O)[C@@H]3O)[C@@H](O)[C@H](O[C@H]3O[C@H](CO)[C@@H](O)[C@H](O)[C@@H]3O)[C@@H]2O)[C@@H]1O` (some centres unmarked) [oligomannose-5], the “interaction with PG9 by STD NMR” value in assay [2] is on record as “weak interactions”.

“CAP45: gp120 monomer of HIV-1 Clade C strain CAP45, SEQ ID NO: 3”: in assay [1], the “PG9 recognition” value is on record as “retained PG9 recognition”. Same read-out and setting: under “TRJO: gp120 monomer of HIV-1 Clade B strain TRJO, SEQ ID NO: 7” stands “retained PG9 recognition”.

In the case of “ZM53: gp120 monomer of HIV-1 Clade C strain ZM53, SEQ ID NO: 4”, the “PG9 recognition” value in assay [1] is on record as “retained PG9 recognition”.

On to “ZM109: gp120 monomer of HIV-1 Clade C strain ZM109, SEQ ID NO: 2”, for which, in assay [1], the “PG9 recognition” value was “retained PG9 recognition”.
